From patent publication US20050282755A1, “Compositions having antimicrobial activity and uses thereof” (priority 2004, published 2005)
≈ marks a conversion by molar mass, not a printed value. Starred links: 1 amine or outer side, 2 acyl side, 3 side chain; linkers in the order of their positions; H or OH if unused. Non-standard residues stand in square brackets, D forms with d. Residues, ends and D or L forms follow the SMILES beside them. *: point of attachment. Ethylenediamine = C(CN[*:2])N[*:1]; Lauroyl = CCCCCCCCCCCC(=O)*; Decanoyl = CCCCCCCCCC(=O)*; Hexanoyl = CCCCCC(=O)*; Ahx = NCCCCCC(=O)O; βAla = NCCC(=O)O

What was measured:
[1] = tested on: Staphylococcus aureus ATCC 29213; experiment: MIC, NCCLS M7-A6 broth microdilution, cation-adjusted Mueller Hinton broth (Table 9, no superscript); format: cell-based; conditions: ATCC 29213
Procedure: (§1) Cation-adjusted Mueller Hinton broth was used in the broth microdilution method. In brief, a log-phase bacterial suspension was used to inoculate wells of a 96-well plate so that the final inoculum for each well contained 5×10^5 to 1×10^6 CFU/milliliter. […] Plates were incubated overnight at 37° C. The lowest concentration of peptide that contained no visible growth as evidenced by a lack of turbidity when compared to the control (no peptide) was determined as the MIC. Unless otherwise noted, MIC values listed in Table 9 utilized this method of MIC determination.

Salmonella dublin (Lane) = experiment: MIC, NCCLS M7-A6 broth microdilution (Table 9, no superscript); format: cell-based
Procedure: as §1

Structure (SMILES)	MIC S. aureus [1]	MIC S. dublin (Salmonella dublin (Lane))
CSCC[C@H](NC(=O)[C@H](Cc1ccccc1)NC(=O)[C@H](CC(N)=O)NC(=O)[C@H](CCCNC(=N)N)NC(=O)[C@H](CO)NC(=O)[C@H](Cc1c[nH]c2ccccc12)NC(=O)[C@H](CC(=O)O)NC(=O)[C@H](CCCNC(=N)N)NC(=O)[C@H](Cc1c[nH]c2ccccc12)NC(=O)[C@H](CCCNC(=N)N)NC(=O)[C@H](CO)NC(=O)[C@H](CCCNC(=N)N)NC(=O)CNC(=O)[C@@H](NC(=O)[C@H](CCCNC(=N)N)NC(=O)[C@H](CO)NC(=O)[C@@H](NC(=O)[C@H](CCCNC(=N)N)NC(=O)[C@@H](NC(C)=O)[C@@H](C)O)C(C)C)[C@@H](C)O)C(=O)N[C@@H](CCCNC(=N)N)C(=O)N[C@@H](C)C(=O)N[C@@H](C)C(=O)N[C@@H](CCCNC(=N)N)C(=O)N[C@@H](CCCNC(=N)N)C(=O)N[C@@H](CCCNC(=N)N)C(=O)N[C@@H](CCCNC(=N)N)C(N)=O [Peptide 9] (Ac-TRVSRTGRSRWRDWSRNFMRAARRRR-NH2)	>64 µg/mL	>64 µg/mL
CSCC[C@H](NC(=O)[C@H](Cc1ccccc1)NC(=O)[C@H](CC(N)=O)NC(=O)[C@H](CCCNC(=N)N)NC(=O)[C@H](CO)NC(=O)[C@H](Cc1c[nH]c2ccccc12)NC(=O)[C@H](CC(=O)O)NC(=O)[C@H](CCCNC(=N)N)NC(=O)[C@H](Cc1c[nH]c2ccccc12)NC(=O)[C@H](CCCNC(=N)N)NC(=O)[C@H](CO)NC(=O)[C@H](CCCNC(=N)N)NC(=O)CNC(=O)[C@@H](NC(=O)[C@H](CCCNC(=N)N)NC(=O)[C@H](CO)NC(=O)[C@@H](NC(=O)[C@H](CCCNC(=N)N)NC(=O)[C@@H](NC(C)=O)[C@@H](C)O)C(C)C)[C@@H](C)O)C(=O)N[C@@H](CCCNC(=N)N)C(=O)N[C@@H](CC(C)C)C(=O)N[C@@H](CC(C)C)C(N)=O [Peptide 19] (Ac-TRVSRTGRSRWRDWSRNFMRLL-NH2)	>64 µg/mL	32 µg/mL (≈ 11.1 µM)
CC[C@H](C)[C@H](NC(=O)[C@@H](NC(=O)[C@H](CC(C)C)NC(=O)[C@H](CO)NC(=O)[C@@H](NC(=O)[C@H](CCCNC(=N)N)NC(=O)[C@H](Cc1ccc(O)cc1)NC(=O)[C@H](CC(=O)O)NC(=O)[C@H](CCCNC(=N)N)NC(C)=O)[C@@H](C)O)[C@@H](C)O)C(=O)N[C@H](C(=O)N[C@@H](CCC(N)=O)C(=O)N[C@@H](CCCCN)C(=O)NCCCCCC(=O)N[C@H](C(=O)N[C@@H](CCCNC(=N)N)C(=O)N[C@H](C(=O)N[C@@H](CO)C(=O)N[C@@H](CCCNC(=N)N)C(=O)N[C@H](C(=O)NCC(=O)N[C@@H](CCCNC(=N)N)C(=O)N[C@@H](CO)C(=O)N[C@@H](CCCNC(=N)N)C(=O)N[C@@H](Cc1c[nH]c2ccccc12)C(=O)N[C@@H](CCCNC(=N)N)C(=O)N[C@@H](CC(=O)O)C(=O)N[C@@H](Cc1c[nH]c2ccccc12)C(=O)N[C@@H](CO)C(=O)N[C@@H](CCCNC(=N)N)C(=O)N[C@@H](CC(N)=O)C(=O)N[C@@H](Cc1ccccc1)C(=O)N[C@@H](CCSC)C(=O)N[C@@H](CCCNC(=N)N)C(N)=O)[C@@H](C)O)C(C)C)[C@@H](C)O)C(C)C [Peptide 28, Ac-RDYRTSLTIVQKXTRVSRTGRSRWRDWSRNFMR-NH2 X = aminohexanoic acid] (Ac-RDYRTSLTIVQK[Ahx]TRVSRTGRSRWRDWSRNFMR-NH2)	>64 µg/mL	>64 µg/mL
CCCCCCCCCCCC(=O)N[C@@H](CCCNC(=N)N)C(=O)N[C@@H](CC(=O)O)C(=O)N[C@H](C(=O)N[C@@H](C)C(=O)N[C@@H](CCCNC(=N)N)C(=O)N[C@@H](CC(N)=O)C(=O)N[C@@H](Cc1ccccc1)C(N)=O)C(C)C [Peptide 107, Lauryl-RDVARNF-NH2] (Lauroyl-RDVARNF-NH2)	>64 µg/mL	>64 µg/mL
CCCCCCCCCCCC(=O)N[C@@H](CO)C(=O)N[C@@H](CCCNC(=N)N)C(=O)N[C@@H](Cc1c[nH]c2ccccc12)C(=O)N[C@@H](CCCNC(=N)N)C(=O)N[C@@H](CC(=O)O)C(=O)N[C@H](C(=O)N[C@@H](C)C(=O)N[C@@H](CCCNC(=N)N)C(=O)N[C@@H](CC(N)=O)C(=O)N[C@@H](Cc1ccccc1)C(=O)N[C@@H](CCSC)C(=O)N[C@@H](CCCNC(=N)N)C(N)=O)C(C)C [Peptide 114, Lauryl-SRWRDVARNFMR-NH2] (Lauroyl-SRWRDVARNFMR-NH2)	4 µg/mL (≈ 2.25 µM)	4 µg/mL (≈ 2.25 µM)
CCCCCCCCCC(=O)NCCNC(=O)[C@H](CCCNC(=N)N)NC(=O)[C@H](CC(C)C)NC(=O)[C@H](Cc1ccccc1)NC(=O)[C@H](CC(N)=O)NC(=O)[C@H](CCCNC(=N)N)NC(=O)[C@H](C)NC(=O)[C@@H](NC(=O)[C@H](CC(=O)O)NC(=O)[C@H](CCCNC(=N)N)NC(=O)[C@H](Cc1c[nH]c2ccccc12)NC(=O)[C@H](CCCNC(=N)N)NC(=O)[C@H](CO)NC(=O)[C@@H](N)CCCNC(=N)N)C(C)C [Peptide 170, H2N-RSRWRDVARNFLR-Ethylamidodecanyl] (H-RSRWRDVARNFLR-{Ethylenediamine-Decanoyl}; C-terminus assumed)	2 µg/mL (≈ 1.04 µM)	2 µg/mL (≈ 1.04 µM)
CCCCCC(=O)NCCCC[C@H](NC(=O)[C@H](CCCNC(=N)N)NC(=O)[C@H](CCSC)NC(=O)[C@H](Cc1ccccc1)NC(=O)[C@H](CC(N)=O)NC(=O)[C@H](CCCNC(=N)N)NC(=O)[C@H](C)NC(=O)[C@@H](NC(=O)[C@H](CC(=O)O)NC(=O)[C@H](CCCNC(=N)N)NC(=O)[C@H](Cc1c[nH]c2ccccc12)NC(=O)[C@H](CCCNC(=N)N)NC(=O)[C@H](CO)NC(=O)[C@@H](N)CCCNC(=N)N)C(C)C)C(N)=O [Peptide 183, H2N-RSRWRDVARNFMRK(Hexanyl)-NH2] (H-RSRWRDVARNFMRK(Hexanoyl)-NH2)	>64 µg/mL	>64 µg/mL

Next, values leading:

MIC S. aureus [1]	MIC S. dublin (Salmonella dublin (Lane))	Structure (SMILES)
>64 µg/mL	64 µg/mL (≈ 17.9 µM)	CSCC[C@H](NC(=O)[C@H](Cc1ccccc1)NC(=O)[C@H](CC(N)=O)NC(=O)[C@H](CCCNC(=N)N)NC(=O)[C@H](CO)NC(=O)[C@H](Cc1c[nH]c2ccccc12)NC(=O)[C@H](CC(=O)O)NC(=O)[C@H](CCCNC(=N)N)NC(=O)[C@H](Cc1c[nH]c2ccccc12)NC(=O)[C@H](CCCNC(=N)N)NC(=O)[C@H](CO)NC(=O)[C@H](CCCNC(=N)N)NC(=O)CNC(=O)[C@@H](NC(=O)[C@H](CCCNC(=N)N)NC(=O)[C@H](CO)NC(=O)[C@@H](NC(=O)[C@H](CCCNC(=N)N)NC(=O)[C@@H](NC(C)=O)[C@@H](C)O)C(C)C)[C@@H](C)O)C(=O)N[C@@H](CCCNC(=N)N)C(=O)N[C@@H](C)C(=O)N[C@@H](C)C(=O)N[C@@H](CCCNC(=N)N)C(=O)N[C@@H](CCCNC(=N)N)C(=O)N[C@@H](CCCNC(=N)N)C(=O)N[C@@H](CCCNC(=N)N)C(=O)N[C@@H](CCCNC(=N)N)C(N)=O [Peptide 10] (Ac-TRVSRTGRSRWRDWSRNFMRAARRRRR-NH2)
64 µg/mL (≈ 17.2 µM)	32 µg/mL (≈ 8.58 µM)	CSCC[C@H](NC(=O)[C@H](Cc1ccccc1)NC(=O)[C@H](CC(N)=O)NC(=O)[C@H](CCCNC(=N)N)NC(=O)[C@H](CO)NC(=O)[C@H](Cc1c[nH]c2ccccc12)NC(=O)[C@H](CC(=O)O)NC(=O)[C@H](CCCNC(=N)N)NC(=O)[C@H](Cc1c[nH]c2ccccc12)NC(=O)[C@H](CCCNC(=N)N)NC(=O)[C@H](CO)NC(=O)[C@H](CCCNC(=N)N)NC(=O)CNC(=O)[C@@H](NC(=O)[C@H](CCCNC(=N)N)NC(=O)[C@H](CO)NC(=O)[C@@H](NC(=O)[C@H](CCCNC(=N)N)NC(=O)[C@@H](NC(C)=O)[C@@H](C)O)C(C)C)[C@@H](C)O)C(=O)N[C@@H](CCCNC(=N)N)C(=O)N[C@@H](C)C(=O)N[C@@H](C)C(=O)N[C@@H](CCCNC(=N)N)C(=O)N[C@@H](CCCNC(=N)N)C(=O)N[C@@H](CCCNC(=N)N)C(=O)N[C@@H](CCCNC(=N)N)C(=O)N[C@@H](CCCNC(=N)N)C(=O)N[C@@H](CCCNC(=N)N)C(N)=O [Peptide 11] (Ac-TRVSRTGRSRWRDWSRNFMRAARRRRRR-NH2)
>64 µg/mL	>64 µg/mL	CSCC[C@H](NC(=O)[C@H](Cc1ccccc1)NC(=O)[C@H](CC(N)=O)NC(=O)[C@H](CCCNC(=N)N)NC(=O)[C@H](CO)NC(=O)[C@H](Cc1c[nH]c2ccccc12)NC(=O)[C@H](CC(=O)O)NC(=O)[C@H](CCCNC(=N)N)NC(=O)[C@H](Cc1c[nH]c2ccccc12)NC(=O)[C@H](CCCNC(=N)N)NC(=O)[C@H](CO)NC(=O)[C@H](CCCNC(=N)N)NC(=O)CNC(=O)[C@@H](NC(=O)[C@H](CCCNC(=N)N)NC(=O)[C@H](CO)NC(=O)[C@@H](NC(=O)[C@H](CCCNC(=N)N)NC(=O)[C@@H](NC(=O)CCN)[C@@H](C)O)C(C)C)[C@@H](C)O)C(=O)N[C@@H](CCCNC(=N)N)C(=O)N[C@@H](C)C(=O)N[C@@H](C)C(N)=O [Peptide 18] (H-[βAla]TRVSRTGRSRWRDWSRNFMRAA-NH2)
8 µg/mL (≈ 4.09 µM)	8 µg/mL (≈ 4.09 µM)	CCCCCCCCCCCC(=O)NCCNC(=O)[C@H](CCCNC(=N)N)NC(=O)[C@H](CC(C)C)NC(=O)[C@H](Cc1ccccc1)NC(=O)[C@H](CC(N)=O)NC(=O)[C@H](CCCNC(=N)N)NC(=O)[C@H](C)NC(=O)[C@@H](NC(=O)[C@H](CC(=O)O)NC(=O)[C@H](CCCNC(=N)N)NC(=O)[C@H](Cc1c[nH]c2ccccc12)NC(=O)[C@H](CCCNC(=N)N)NC(=O)[C@H](CO)NC(=O)[C@@H](N)CCCNC(=N)N)C(C)C [Peptide 171, H2N-RSRWRDVARNFLR-Ethylamidolauryl] (H-RSRWRDVARNFLR-{Ethylenediamine-Lauroyl}; C-terminus assumed)
>64 µg/mL	>64 µg/mL	CCCCCC(=O)NCCCC[C@@H](NC(=O)[C@@H](CCCNC(=N)N)NC(=O)[C@@H](CC(C)C)NC(=O)[C@@H](Cc1ccccc1)NC(=O)[C@@H](CC(N)=O)NC(=O)[C@@H](CCCNC(=N)N)NC(=O)[C@@H](C)NC(=O)[C@H](NC(=O)[C@@H](CC(=O)O)NC(=O)[C@@H](CCCNC(=N)N)NC(=O)[C@@H](Cc1c[nH]c2ccccc12)NC(=O)[C@@H](CCCNC(=N)N)NC(=O)[C@@H](CO)NC(=O)[C@H](N)CCCNC(=N)N)C(C)C)C(N)=O [Peptide 192, H2N-rsrwrdvarnflrk(Hexanyl)-NH2] (H-[dR][dS][dR][dW][dR][dD][dV][dA][dR][dN][dF][dL][dR][dK](Hexanoyl)-NH2)
